In the assay the target is T1, NEDD8-activating enzyme E1 catalytic subunit (Homo sapiens, UniProt Q8TBC4).
T1 sequence (Q8TBC4 whole entry): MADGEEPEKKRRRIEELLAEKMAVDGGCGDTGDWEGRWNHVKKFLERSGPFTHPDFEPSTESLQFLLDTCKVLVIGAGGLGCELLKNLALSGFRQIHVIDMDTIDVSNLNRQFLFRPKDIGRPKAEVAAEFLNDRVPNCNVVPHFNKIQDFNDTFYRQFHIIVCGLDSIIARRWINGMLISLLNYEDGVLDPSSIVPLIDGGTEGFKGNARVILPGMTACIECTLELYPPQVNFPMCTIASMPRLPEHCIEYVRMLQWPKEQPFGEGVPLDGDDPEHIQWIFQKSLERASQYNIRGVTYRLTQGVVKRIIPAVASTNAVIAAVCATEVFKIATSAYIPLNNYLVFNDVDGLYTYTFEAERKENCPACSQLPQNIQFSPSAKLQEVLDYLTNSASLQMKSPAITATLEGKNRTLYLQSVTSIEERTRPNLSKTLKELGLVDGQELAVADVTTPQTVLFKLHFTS
Kind of assay: Inhibition of recombinant human untagged NAEalpha/N-terminal His-tagged NAEbeta expressed in Bac-to-Bac expression system using FLAG-tagged NEDD8 as substrate after 90 mins in presence of GST-tagged Ubc12 by HTRF assay.
Take `NS(=O)(=O)OC[C@H]1O[C@@H](n2cnc3c(C#Cc4ccccc4C(F)(F)F)ncnc32)[C@H](O)[C@@H]1O`: the IC50 (as a rule, the concentration at which inhibition is half-maximal) was 0.1 to 1 µM.
Turning to `NS(=O)(=O)OC[C@H]1O[C@@H](n2cnc3c(N[C@H]4CCc5ccccc54)nncc32)[C@H](O)[C@@H]1O`, the concentration for half-maximal inhibition (IC50) was 0.1 to 1 µM.
On to `NS(=O)(=O)OC[C@H]1O[C@@H](n2cnc3c(C4CC4)ncnc32)[C@H](O)[C@@H]1O`, for which the IC50 lay within 0.1 to 1 µM.
For `NS(=O)(=O)OC[C@H]1O[C@@H](n2cnc3c(CNC(=O)c4cc(F)cc(F)c4)ncnc32)[C@H](O)[C@@H]1O`, the IC50 lay within 0.1 to 1 µM.
For `CC(=O)NCc1ccccc1CNc1ncnc2c1ncn2[C@@H]1O[C@H](COS(N)(=O)=O)[C@@H](O)[C@H]1O`, the IC50 is 0.1 to 1 µM.
As for `CCc1cn([C@H]2C[C@H](O)[C@@H](COS(N)(=O)=O)O2)c2ncnc(CCc3ccccc3)c12`, the IC50 was at most 1 µM.
In the case of `NS(=O)(=O)OC[C@H]1O[C@@H](n2cnc3c(C#Cc4cccc(Cl)c4)ncnc32)[C@H](O)[C@@H]1O`, the IC50 was 0.1 to 1 µM.
Next, `Cc1ncnc2c1ncn2[C@@H]1O[C@H](COS(N)(=O)=O)[C@@H](O)[C@H]1O`: 0.1 to 1 µM.
For the molecule `NS(=O)(=O)OC[C@H]1O[C@@H](n2ccc3cncnc32)C[C@@H]1O`, the IC50 lay within 0.1 to 1 µM.
Next, `NS(=O)(=O)OC[C@H]1O[C@@H](n2cnc3c(NC(=O)c4ccc(Cl)cc4)ncnc32)[C@H](O)[C@@H]1O`: 0.1 to 1 µM; `NS(=O)(=O)OC[C@H]1O[C@@H](n2cnc3c(C#Cc4ccc(F)cc4F)ncnc32)[C@H](O)[C@@H]1O`: 0.1 to 1 µM; `NS(=O)(=O)OC[C@H]1C[C@@H](n2cnc3c(C#Cc4ccccc4)ncnc32)C[C@@H]1O`: 0.1 to 1 µM.
Next, `CC(C)Cc1ncnc2c1ncn2[C@@H]1C[C@H](COS(N)(=O)=O)[C@@H](O)[C@H]1O`: at most 1 µM; `NS(=O)(=O)OC[C@H]1O[C@@H](n2cnc3c(CNC(=O)c4cccnc4)ncnc32)[C@H](O)[C@@H]1O`: 0.1 to 1 µM; `NS(=O)(=O)NC[C@H]1O[C@@H](n2cnc3c(C#Cc4ccccc4)ncnc32)[C@H](O)[C@@H]1O`: 0.1 to 1 µM.
Next, `CC(C)Cc1ncnc2c1ncn2[C@@H]1O[C@H](COS(N)(=O)=O)[C@@H](O)[C@H]1O`: at most 1 µM.
As for `NS(=O)(=O)NC[C@H]1C[C@@H](n2cnc3c(N[C@H]4CCc5ccccc54)ncnc32)[C@H](O)[C@@H]1O`, the IC50 fell in the range of 0.1 to 1 µM.
As to `NS(=O)(=O)OC[C@H]1O[C@@H](n2cnc3c(C#Cc4ccccc4Br)ncnc32)[C@H](O)[C@@H]1O`, the half-inhibitory concentration (IC50) lay within 0.1 to 1 µM.
For `NS(=O)(=O)OC[C@H]1O[C@@H](n2cnc3c(NC(=O)c4ccc(Br)cc4)ncnc32)[C@H](O)[C@@H]1O` the value was 0.1 to 1 µM; for `COc1ccccc1C(=O)Nc1ncnc2c1ncn2[C@@H]1O[C@H](COS(N)(=O)=O)[C@@H](O)[C@H]1O`, 0.1 to 1 µM.
For `NS(=O)(=O)OC[C@H]1O[C@@H](n2cnc3c(CC4Cc5ccccc5C4)ncnc32)[C@H](O)[C@@H]1O` the value was 0.1 to 1 µM; for `NS(=O)(=O)OC[C@H]1O[C@@H](n2cnc3c(N[C@H]4CCc5ccccc54)nccc32)[C@H](O)[C@@H]1O`, 0.1 to 1 µM.
With `NS(=O)(=O)OC[C@H]1C[C@@H](n2cnc3c(N[C@H]4CCc5ccccc54)ncnc32)C[C@@H]1O`, the IC50 fell in the range of 0.1 to 1 µM.
As to `NS(=O)(=O)OC[C@H]1O[C@@H](n2cnc3c(-c4ccco4)ncnc32)[C@H](O)[C@@H]1O`, the IC50 was in the range of 0.1 to 1 µM.
Turning to `COc1ncnc2c1ccn2[C@H]1C[C@H](O)[C@@H](COS(N)(=O)=O)O1`, the IC50 is at most 1 µM.
Take `NS(=O)(=O)OC[C@H]1O[C@@H](n2cnc3c(CN4C(=O)c5ccccc5C4=O)ncnc32)[C@H](O)[C@@H]1O`: the IC50 lay within 0.1 to 1 µM.
Next, `NS(=O)(=O)OC[C@H]1O[C@@H](n2cnc3c(C#Cc4cccc(F)c4)ncnc32)[C@H](O)[C@@H]1O`: 0.1 to 1 µM; `NS(=O)(=O)OC[C@H]1O[C@@H](n2cnc3c(CN4Cc5ccccc5C4)ncnc32)[C@H](O)[C@@H]1O`: 0.1 to 1 µM.
Consider `CCc1ncnc2c1ncn2[C@@H]1O[C@H](COS(N)(=O)=O)[C@@H](O)[C@H]1O`, for which the IC50 is 0.1 to 1 µM.
With `CC1(C)CC(Nc2ncnc3c2ncn3[C@@H]2O[C@H](CCS(N)(=O)=O)[C@@H](O)[C@H]2O)c2ccccc21` (some centres not stated), the IC50 is 0.1 to 1 µM.
Consider `NS(=O)(=O)OC[C@H]1O[C@@H](n2cnc3c(NC(=O)Nc4ccccc4)ncnc32)[C@H](O)[C@@H]1O`, for which the IC50 lay within 0.1 to 1 µM.
Next, `COc1ccccc1C(=O)NCc1ncnc2c1ncn2[C@@H]1O[C@H](COS(N)(=O)=O)[C@@H](O)[C@H]1O`: 0.1 to 1 µM; `NS(=O)(=O)OC[C@H]1O[C@@H](n2cnc3c(C#Cc4ccc(F)cc4)ncnc32)[C@H](O)[C@@H]1O`: 0.1 to 1 µM; `NS(=O)(=O)OC[C@H]1O[C@@H](n2cnc3c(C#Cc4cccc(C(F)(F)F)c4)ncnc32)[C@H](O)[C@@H]1O`: 0.1 to 1 µM.
On to `NS(=O)(=O)OC[C@H]1O[C@@H](n2cnc3c(C#Cc4ccccc4)ncnc32)C[C@@H]1O`, for which the IC50 is 0.1 to 1 µM.
Turning to `NS(=O)(=O)OC[C@H]1O[C@@H](n2cnc3c(C#Cc4cc(F)cc(F)c4)ncnc32)[C@H](O)[C@@H]1O`, the IC50 lay within 0.1 to 1 µM.
On to `NS(=O)(=O)OC[C@H]1O[C@@H](n2cnc3c(C#Cc4ccc(Br)cc4)ncnc32)[C@H](O)[C@@H]1O`, for which the 50% inhibitory concentration (IC50) fell in the range of 0.1 to 1 µM.
For `COc1ccc(C#Cc2ncnc3c2ncn3[C@@H]2O[C@H](COS(N)(=O)=O)[C@@H](O)[C@H]2O)cc1` the value was 0.1 to 1 µM; for `CN(c1ncnc2c1ncn2[C@@H]1O[C@H](COS(N)(=O)=O)[C@@H](O)[C@H]1O)[C@H]1CCc2ccccc21`, 0.1 to 1 µM.
For `NS(=O)(=O)OC[C@H]1O[C@@H](n2cnc3c(CNC(=O)c4ccccc4)ncnc32)[C@H](O)[C@@H]1O`, the IC50 lay in the range of 0.1 to 1 µM.
On to `NS(=O)(=O)OC[C@H]1O[C@@H](n2cnc3c(C#Cc4cccc(Br)c4)ncnc32)[C@H](O)[C@@H]1O`, for which the IC50 fell in the range of 0.1 to 1 µM.
On to `NS(=O)(=O)OC[C@H]1O[C@@H](n2cnc3c(C#Cc4ccc(Cl)cc4)ncnc32)[C@H](O)[C@@H]1O`, for which the IC50 was 0.1 to 1 µM.
With `NS(=O)(=O)OC[C@H]1O[C@@H](n2cnc3c(NCc4ccccc4)ncnc32)C[C@@H]1O`, the IC50 lay in the range of 0.1 to 1 µM.
Take `NS(=O)(=O)OC[C@H]1C[C@@H](n2cnc3c(CCc4ccccc4)ncnc32)[C@H](O)[C@@H]1O`: the IC50 lay within 0.1 to 1 µM.
`NS(=O)(=O)OC[C@H]1O[C@@H](n2ccc3c(N[C@H]4CCc5ccccc54)ncnc32)C[C@@H]1O`: the IC50 was 0.1 to 1 µM.
For `NS(=O)(=O)OC[C@H]1C[C@@H](n2cnc3c(C#Cc4ccccc4)ncnc32)[C@H](O)[C@@H]1O` the value was 0.1 to 1 µM.
For the molecule `NS(=O)(=O)OC[C@H]1O[C@@H](n2ccc3c(NCc4ccccc4)nccc32)C[C@@H]1O`, the IC50 is at most 1 µM.
`NS(=O)(=O)OC[C@H]1O[C@@H](n2cnc3c(C#CC4CC4)ncnc32)[C@H](O)[C@@H]1O`: the IC50 was 0.1 to 1 µM.
In the case of `CCCc1ncnc2c1ncn2[C@@H]1C[C@H](COS(N)(=O)=O)[C@@H](O)[C@H]1O`, the IC50 fell in the range of 0.1 to 1 µM.
For `NS(=O)(=O)OC[C@H]1O[C@@H](n2ccc3c(NC(=O)c4ccccc4)ncnc32)C[C@@H]1O` the value was 0.1 to 1 µM; for `NS(=O)(=O)OC[C@H]1O[C@@H](n2cnc3c(C#Cc4ccccc4F)ncnc32)[C@H](O)[C@@H]1O`, 0.1 to 1 µM; for `COc1ccccc1C#Cc1ncnc2c1ncn2[C@@H]1O[C@H](COS(N)(=O)=O)[C@@H](O)[C@H]1O`, 0.1 to 1 µM.

(Values after ChEMBL document CHEMBL3880402, “Inhibitors of E1 activating enzymes” (2006).)
